In patent publication US11478526B2, “Methods of reducing neuroinflammation or toxicity induced by amyloid beta (abeta) using glucocorticoid induced leucine zipper (GILZ) analog peptides” (INDIANA UNIVERSITY RESEARCH AND TECHNOLOGY CORPORATION, priority 2016, dated 2022):

Columns and labels:
[1] = LD50 predicted from in-vitro IC50 by regression (Speilmann method); details: for LD50 estimated from IC50: Log (LD50)=0.506×(log IC50)+0.475, body weight; for LD50 (mM): score 1/0
Description: Lactate dehydrogenase (LDH) assay: To detect direct GA-induced cell lysis we performed LDH release assays (Roche Molecular Diagnostics). […] Approximately 5×10^4 U373 cells/well were cultured in 96-well plates in the presence of increasing concentrations of individual GA or control peptide from 0.5 μM to 500 μM. Cells treated with 2% triton-X 100 (Sigma Aldrich, St. Louis, Mo.) for 10 minutes served as positive control. Untreated cells served as controls for spontaneous LDH-release. Specific LDH-release was calculated according to the following formula: LDH-release %=100*(GA or control peptide treated cells—untreated cells)/(positive control-untreated cells). The IC50 values were extrapolated by logarithmic estimation. The LD50 in mg/kg was predicted using the formula, Log (LD50)=0.506×(log IC50)+0.475. […]

[2] = target: T1, Recombinant human p65 protein (r-p65) (Homo sapiens, UniProt Q04206); assay: Plate binding ELISA of GA/PGA with r-p65 (KD by method of Friguet)
T1 construct: purchased Ori-Gene Technologies Inc., Rockville, Md; TP320780
Description: We used similar method to determine direct binding kinetics of GA hexapeptides with human r-p65. […] Absorbance at 650 nm was measured with a mixing time of 30 s using BIORAD microplate reader. […] The dissociation constant of the interaction between the GA or the control peptide and r-p65 was determined by the method of Friguet et al., as described. A fraction of the bound r-p65 (x) and the ratio of bound r-p65 to the free GA or control peptide (y) was determined by the equations: x=(A0−A)/(A0), where A0 is the absorbance of r-p65anti-p65 complex in the absence of bound GA or control peptide and y=(A0−A)/(a0−i0)×(A0−A)/(A0), where a0 is the total concentration of GA or control peptide and i0 is the total concentration of r-p65.
Kinetics of PGA:-p65 interaction: The binding kinetics of top five PGA with full length human r-p65 was assessed as described. Plate bound GILZ-P or PGA at increasing concentrations was probed with r-p65-DDK (Ori-Gene Technologies Inc., Rockville, Md.) at constant concentration and detected with anti-DDK.

[3] = tested on: primary human fetal brain cells (HFB); assay: CTG viability of primary human fetal brain cultures with or without Aβ1-42; type: cell-based; details: for viability of Aβ1-42 exposed HFB cells: Aβ1-42 10 μM
Description: Functional assays in human primary mixed brain cultures (HFB). Primary cultures of mixed HFB were prepared from the brain parenchyma of aborted fetuses (80-100 days gestational age). The tissues were obtained from the Birth Defects Research Laboratory (BDRL) at the University of Washington, Seattle with approval from the Indiana University Institutional Review Board (IRB). The IRB determined that the use of anonymous human biological materials received from this depository is not considered as human subjects research (supplementary document, s1). The NIH funded BDRL tissue distribution program operates separately in full compliance with all relevant state and federal laws and regulations with donors providing written informed consent.
Fetal brain materials (10-20 g) were shipped overnight in chilled Hibernate-E medium (Invitrogen) supplemented with B27 (Invitrogen), GlutaMAX (Invitrogen) and antibiotic-antimycotic solution (Cellgro). HFB were prepared and cultured as described. Briefly, cells were cultured in Neurobasal medium (Invitrogen) without phenol red supplemented with 1×B27, […] GlutaMAX, 1×antibiotic cocktail, 5 ng/mL recombinant fibroblast growth factor 2 (bFGF) (Invitrogen), and 2 μL/mL Normocin (InVivoGen, San Diego, Calif., USA). Cells were counted and seeded onto poly-D-lysine (Sigma-Aldrich) coated 24-well plates (Corning, Lowell, Mass., USA) at 1.5×10^5 cells per well and maintained at 37° C. in a 5% CO2 incubator. Half media changes were performed every 4th day of culture and morphology was monitored via phase contrast microscopy. Culture medium was removed from cells on day 17 (DIV17) and replaced with Neurobasal medium with B27. […] Cells and conditioned media were harvested and stored for further analysis. Relative ATP concentration was measured using the CTG kit (Promega). Data is presented as ΔRLU=RLU of Aβ1-42 exposed cells-RLU unexposed cells. Conditioned media collected were assessed for specific cytokines using the OptEIA kits (BD Biosciences). Nuclear and cytoplasmic fractions were extracted using the CelLytic™ NuCLEAR™ Extraction Kit (Sigma) following manufacturer's protocol. Five microgram of nuclear extracts was incubated in a 96-well plate coated with oligonucleotides containing the NF-κβ consensus nucleotide sequence (5′-[…]-3′) (SEQ ID NO: 30). The activated NF-κβ bound to DNA was detected by anti-p65 antibody followed by a peroxidase coupled secondary antibody and substrate using the TransAM kit protocol (Active Motif). Nuclear extracts of Raji cells was used as the positive control.
Select PGA protects against Aβ1-42 induced toxicity, prevents p65 activation and cytokine response in human fetal brain (HFB) cells. […] Viability in terms of relative luminescent Units (RLU) was quantified using a Glowmax luminometer (Promega, Wis.). Data are presented as ARLU=RLU of Aβ1-42 exposed cells-RLU of unexposed cells. […] The mean RLU of vehicle treated HFB varied between 7352.75+/−1265.2 and 16157.5+/−4950. Average RLU of cultures exposed to Aβ1-42 varied between 6067.25+/−903.05 and 11574.25+/−4139.3 in different experiments. […] The culture supernatants were assessed for cytokines by ELISA (R&D Systems, Minn.). […] Primary HFB cultured similarly and harvested at the end of 4 hours was assessed for nuclear p65 using TransAM kit for NF-κB p65 (Active Motif, Calif.).

[4] = dissociation constant, KD, method of Friguet et al.
[5] = PGA at IC50 concentration, 24 hours
[6] = 50 μM peptide, vs untreated Aβ1-42 exposed cultures

T1 sequence (Q04206 whole entry): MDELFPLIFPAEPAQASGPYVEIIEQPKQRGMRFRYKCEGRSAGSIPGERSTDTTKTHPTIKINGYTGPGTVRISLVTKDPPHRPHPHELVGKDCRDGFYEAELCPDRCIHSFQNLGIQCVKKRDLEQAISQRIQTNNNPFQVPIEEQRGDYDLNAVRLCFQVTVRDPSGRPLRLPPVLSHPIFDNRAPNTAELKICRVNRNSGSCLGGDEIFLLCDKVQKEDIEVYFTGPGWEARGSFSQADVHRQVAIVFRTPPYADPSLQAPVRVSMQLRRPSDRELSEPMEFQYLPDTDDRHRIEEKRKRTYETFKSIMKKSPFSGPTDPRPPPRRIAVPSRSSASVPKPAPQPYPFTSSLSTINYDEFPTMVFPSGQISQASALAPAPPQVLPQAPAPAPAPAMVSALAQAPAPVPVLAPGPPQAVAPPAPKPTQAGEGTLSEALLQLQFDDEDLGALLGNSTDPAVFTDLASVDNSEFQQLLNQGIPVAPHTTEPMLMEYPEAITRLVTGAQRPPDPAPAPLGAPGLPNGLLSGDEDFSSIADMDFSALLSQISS

Substance	LD50 estimated from IC50 [1] [mg/kg]	LD50 (mM) [1]	Kd ([2]; KD (uM), score 1/0) [µM]	Kd [2, 4] [µM]	tolerance of HFB cultures (ΔRLU, CTG) ([3]; PGA at IC50 concentration)	viability of Aβ1-42 exposed HFB cells [3, 5]	affinity for binding r-p65 relative to r-GILZ [2]	viability of Aβ1-42 exposed HFB cells [3, 6]
Ac-EPAPLAPYG-NH2 [PGA-2]	1396.83	1 (>100)	< 3	2.29	well tolerated	significantly higher		
Ac-EPAPESPQV-NH2 [PGA-4]	1693.87	1 (>100)	> 3	3.28	well tolerated	significantly higher		
Ac-EPAPLAPYG-NH2 [GA-1]	380.44						greater affinity for binding r-p65 than the full length r-GILZ	significantly higher
Ac-EPAPESPQV-NH2 [GA-2]	369.42						greater affinity for binding r-p65 than the full length r-GILZ	significantly higher
